For 6 molecules, EC50 results are on record in patent US9067977B2, “Peptides derivatized with A-B-C-D- and their therapeutical use” (Novo Nordisk A/S, priority 2007, dated 2015).

Starred links: 1 amine or outer side, 2 acyl side, 3 side chain; linkers in the order of their positions; H or OH if unused. Non-standard residues stand in square brackets, D forms with d. Residues, ends and D or L forms follow the SMILES beside them. Groups on a side chain read outwards from the residue. *: point of attachment. C20 diacid = O=C(O)CCCCCCCCCCCCCCCCCCC(=O)*; C18 diacid = O=C(O)CCCCCCCCCCCCCCCCC(=O)*; d(βAsp) = O=C(O)[C@@H](CC(=O)[*:2])N[*:1]; γGlu = O=C(O)[C@H](CCC(=O)[*:2])N[*:1]; 2Nal = N[C@@H](Cc1ccc2ccccc2c1)C(=O)O; Desaminohistidyl = O=C(CCc1c[nH]cn1)*; AEEA = NCCOCCOCC(=O)O; Aib = CC(C)(N)C(=O)O; Inp = O=C(O)C1CCNCC1; Bn = c1ccc(C*)cc1

The target of this assay is human serum albumin (HSA) (Homo sapiens, UniProt P02768). Description: Albumin binding affinity, competition scintillation proximity assay.
Sequence of human serum albumin (HSA) (P02768 25-609): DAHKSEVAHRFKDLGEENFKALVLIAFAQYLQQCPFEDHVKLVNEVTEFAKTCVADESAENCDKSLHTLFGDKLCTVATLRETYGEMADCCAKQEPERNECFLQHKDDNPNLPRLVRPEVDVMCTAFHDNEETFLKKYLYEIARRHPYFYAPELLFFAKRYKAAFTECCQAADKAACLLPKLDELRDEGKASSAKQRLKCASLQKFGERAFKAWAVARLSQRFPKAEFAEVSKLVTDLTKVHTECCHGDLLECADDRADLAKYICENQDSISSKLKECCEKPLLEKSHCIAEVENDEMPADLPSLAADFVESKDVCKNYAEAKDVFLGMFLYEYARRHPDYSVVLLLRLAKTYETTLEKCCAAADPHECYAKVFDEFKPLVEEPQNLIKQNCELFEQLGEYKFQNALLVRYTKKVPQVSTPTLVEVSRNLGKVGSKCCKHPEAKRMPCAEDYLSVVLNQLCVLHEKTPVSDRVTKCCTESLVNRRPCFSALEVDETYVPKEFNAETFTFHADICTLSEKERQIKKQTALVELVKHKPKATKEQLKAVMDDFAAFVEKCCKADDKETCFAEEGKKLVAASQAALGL
Method: Streptavidin-SPA beads (GE Healthcare RPNQ0009) were incubated with biotinylated HSA for 5 hours. The beads were washed with buffer to remove unbound HSA. […] After 20 hours of gentle rocking at room temperature the plates were centrifuged and counted on a TopCounter.
The molecule `CC[C@H](C)[C@H](NC(=O)[C@H](Cc1ccccc1)NC(=O)[C@H](CCC(=O)O)NC(=O)[C@H](CCCNC(=N)N)NC(=O)[C@H](C)NC(=O)[C@H](C)NC(=O)[C@H](CCC(N)=O)NC(=O)[C@H](CCC(=O)O)NC(=O)[C@H](CCC(=O)O)NC(=O)[C@H](CC(C)C)NC(=O)[C@H](Cc1ccc(O)cc1)NC(=O)[C@H](CO)NC(=O)[C@H](CO)NC(=O)[C@@H](NC(=O)[C@H](CC(=O)O)NC(=O)[C@H](CO)NC(=O)[C@@H](NC(=O)[C@H](Cc1ccccc1)NC(=O)[C@@H](NC(=O)CNC(=O)[C@H](CCC(=O)O)NC(=O)[C@H](C)NC(=O)CCc1c[nH]cn1)[C@@H](C)O)[C@@H](C)O)C(C)C)C(=O)N[C@@H](C)C(=O)N[C@@H](Cc1c[nH]c2ccccc12)C(=O)N[C@@H](CC(C)C)C(=O)N[C@H](C(=O)N[C@@H](CCCNC(=N)N)C(=O)NCC(=O)N[C@@H](CCCNC(=N)N)C(=O)NCC(=O)N[C@@H](CCCCNC(=O)COCCOCCNC(=O)COCCOCCNC(=O)CC[C@H](NC(=O)C1CCN(C(=O)CCCCCCCCCCCCCCCCCCC(=O)O)CC1)C(=O)O)C(=O)O)C(C)C` [Example 7, [DesaminoHis7,Glu22,Arg26,Arg34]GLP-1-(7-37)-Lys(2-{2-[2-(2-{2-[2-((S)-4-Carboxy-4-{[1-(19-carboxynonadecanoyl)piperidine-4-carbonyl]amino}butyrylamino)ethoxy]ethoxy}acetylamino)ethoxy]ethoxy}acetyl)] (Desaminohistidyl-AEGTFTSDVSSYLEEQAAREFIAWLVRGRGK([AEEA-AEEA-γGlu-Inp-C20 diacid])-OH) returned an EC50 of 300 to 800 nM. `CC[C@H](C)[C@H](NC(=O)[C@H](Cc1ccccc1)NC(=O)[C@H](CCC(=O)O)NC(=O)[C@H](CCCNC(=N)N)NC(=O)[C@H](C)NC(=O)[C@H](C)NC(=O)[C@H](CCC(N)=O)NC(=O)CNC(=O)[C@H](CCC(=O)O)NC(=O)[C@H](CCCCNC(=O)COCCOCCNC(=O)COCCOCCNC(=O)C[C@@H](NC(=O)C1CCN(C(=O)CCCCCCCCCCCCCCCCC(=O)O)CC1)C(=O)O)NC(=O)[C@H](Cc1ccc(O)cc1)NC(=O)[C@H](CO)NC(=O)[C@H](CO)NC(=O)[C@@H](NC(=O)[C@H](CC(=O)O)NC(=O)[C@H](CO)NC(=O)[C@@H](NC(=O)[C@H](Cc1ccccc1)NC(=O)[C@@H](NC(=O)CNC(=O)[C@H](CCC(=O)O)NC(=O)C(C)(C)NC(=O)[C@@H](N)Cc1c[nH]cn1)[C@@H](C)O)[C@@H](C)O)C(C)C)C(=O)N[C@@H](CCC(=O)O)C(=O)N[C@@H](Cc1c[nH]c2ccccc12)C(=O)N[C@@H](CC(C)C)C(=O)N[C@H](C(=O)N[C@@H](CCCCN)C(=O)NCC(=O)N[C@@H](CCCNC(=N)N)C(=O)NCC(N)=O)[C@@H](C)OCc1ccccc1` [Example 8, N-ε^20({2-[2-(2-{2-[2-((R)-3-carboxy-3-{[1-(17-carboxyheptadecanoyl)piperidine-4-carbonyl]amino}propionylamino)ethoxy]ethoxy}acetylamino)ethoxy]ethoxy}acetyl) [Aib^8,Lys^20,Arg^28,Glu^30,Thr(O-benzyl)^33]GLP-1-(7-37)amide] (H-H[Aib]EGTFTSDVSSYK([AEEA-AEEA-d(βAsp)-Inp-C18 diacid])EGQAAREFIEWLT(Bn)KGRG-NH2; N-terminus assumed) showed an EC50 of 300 to 800 nM. Next, `CC[C@H](C)[C@H](NC(=O)[C@H](Cc1ccccc1)NC(=O)[C@H](CCC(=O)O)NC(=O)[C@H](CCCNC(=N)N)NC(=O)[C@H](C)NC(=O)[C@H](C)NC(=O)[C@H](CCC(N)=O)NC(=O)[C@H](CCC(=O)O)NC(=O)[C@H](CCC(=O)O)NC(=O)[C@H](CC(C)C)NC(=O)[C@H](Cc1ccc(O)cc1)NC(=O)[C@H](CO)NC(=O)[C@H](CO)NC(=O)[C@@H](NC(=O)[C@H](CC(=O)O)NC(=O)[C@H](CO)NC(=O)[C@@H](NC(=O)[C@H](Cc1ccccc1)NC(=O)[C@@H](NC(=O)CNC(=O)[C@H](CCC(=O)O)NC(=O)C(C)(C)NC(=O)[C@@H](N)Cc1c[nH]cn1)[C@@H](C)O)[C@@H](C)O)C(C)C)C(=O)N[C@@H](CCCCNC(=O)COCCOCCNC(=O)COCCOCCNC(=O)C[C@H](NC(=O)C1CCN(C(=O)CCCCCCCCCCCCCCCCCCC(=O)O)CC1)C(=O)O)C(=O)N[C@@H](Cc1c[nH]c2ccccc12)C(=O)N[C@@H](CC(C)C)C(=O)N[C@H](C(=O)N[C@@H](CCCCN)C(=O)NCC(=O)N[C@@H](CCCNC(=N)N)C(=O)NCC(=O)O)C(C)C` [Example 9, N-epsilon30{2-[2-(2-{2-[2-((S)-3-carboxy-3-{[1-(19-carboxynonadecanoyl)piperidine-4-carbonyl]amino}propionylamino)ethoxy]ethoxy}acetylamino)ethoxy]ethoxy}acetyl [Aib8,Glu22,Arg26,Lys30]GLP-1-(7-37)]: 150 to 300 nM. The figure for `CC[C@H](C)[C@H](NC(=O)[C@H](Cc1ccc2ccccc2c1)NC(=O)[C@H](CCC(=O)O)NC(=O)[C@H](CCCNC(=N)N)NC(=O)[C@H](C)NC(=O)[C@H](C)NC(=O)[C@H](CCC(N)=O)NC(=O)CNC(=O)[C@H](CCC(=O)O)NC(=O)[C@H](CCCCNC(=O)COCCOCCNC(=O)COCCOCCNC(=O)C[C@@H](NC(=O)C1CCN(C(=O)CCCCCCCCCCCCCCCCC(=O)O)CC1)C(=O)O)NC(=O)[C@H](Cc1ccc(O)cc1)NC(=O)[C@H](CO)NC(=O)[C@H](CO)NC(=O)[C@@H](NC(=O)[C@H](CC(=O)O)NC(=O)[C@H](CO)NC(=O)[C@@H](NC(=O)[C@H](Cc1ccccc1)NC(=O)[C@@H](NC(=O)CNC(=O)[C@H](CCC(=O)O)NC(=O)C(C)(C)NC(=O)[C@@H](N)Cc1c[nH]cn1)[C@@H](C)O)[C@@H](C)O)C(C)C)C(=O)N[C@@H](CCC(=O)O)C(=O)N[C@@H](Cc1c[nH]c2ccccc12)C(=O)N[C@@H](CC(C)C)C(=O)N[C@H](C(=O)N[C@@H](CCCCN)C(=O)NCC(=O)N[C@@H](CCCNC(=N)N)C(=O)NCC(N)=O)C(C)C` [Example 11, N-ε^20({2-[2-(2-{2-[2-((R)-3-carboxy-3-{[1-(17-carboxyheptadecanoyl)piperidine-4-carbonyl]amino}propionylamino)ethoxy]ethoxy}acetylamino)ethoxy]ethoxy}acetyl) [Aib^8,Lys^20,Arg^26,2-Naphtylalanine^28, Glu^30]GLP-1 (7-37)amide] (H-H[Aib]EGTFTSDVSSYK([AEEA-AEEA-d(βAsp)-Inp-C18 diacid])EGQAARE[2Nal]IEWLVKGRG-NH2; N-terminus assumed) is 800 to 2000 nM; for `CC[C@H](C)[C@H](NC(=O)[C@H](Cc1ccccc1)NC(=O)[C@H](CCC(=O)O)NC(=O)[C@H](CCCNC(=N)N)NC(=O)[C@H](C)NC(=O)[C@H](C)NC(=O)[C@H](CCC(N)=O)NC(=O)[C@H](CCC(=O)O)NC(=O)[C@H](CCC(=O)O)NC(=O)[C@H](CC(C)C)NC(=O)[C@H](Cc1ccc(O)cc1)NC(=O)[C@H](CO)NC(=O)[C@H](CO)NC(=O)[C@@H](NC(=O)[C@H](CC(=O)O)NC(=O)[C@H](CO)NC(=O)[C@@H](NC(=O)[C@H](Cc1ccccc1)NC(=O)[C@@H](NC(=O)CNC(=O)[C@H](CCC(=O)O)NC(=O)C(C)(C)NC(=O)[C@@H](N)Cc1c[nH]cn1)[C@@H](C)O)[C@@H](C)O)C(C)C)C(=O)N[C@@H](C)C(=O)N[C@@H](Cc1c[nH]c2ccccc12)C(=O)N[C@@H](CC(C)C)C(=O)N[C@H](C(=O)N[C@@H](CCCNC(=N)N)C(=O)NCC(=O)N[C@@H](CCCNC(=N)N)C(=O)NCC(=O)N[C@@H](CCCCNC(=O)COCCOCCNC(=O)COCCOCCNC(=O)CC[C@H](NC(=O)C1CCN(C(=O)CCCCCCCCCCCCCCCCCCC(=O)O)CC1)C(=O)O)C(N)=O)C(C)C` [Example 12, [Aib8, Glu22, Arg26, Arg34]GLP-1-(7-37)Lys[2-(2-[2-(2-[2-(2-((S)-4-[1-[19-Carboxynonadecanoyl]piperidine-4-carbonylamino]-4-carboxybutyrylamino)ethoxy)ethoxy]acetylamino)ethoxy]ethoxy)acetyl]amide] (H-H[Aib]EGTFTSDVSSYLEEQAAREFIAWLVRGRGK([AEEA-AEEA-γGlu-Inp-C20 diacid])-NH2) it is 300 to 800 nM. Next, `CC[C@H](C)[C@H](NC(=O)[C@H](Cc1ccccc1)NC(=O)[C@H](CCC(=O)O)NC(=O)[C@H](CCCNC(=N)N)NC(=O)[C@H](C)NC(=O)[C@H](C)NC(=O)[C@H](CCC(N)=O)NC(=O)CNC(=O)[C@H](CCC(=O)O)NC(=O)[C@H](CCCCNC(=O)COCCOCCNC(=O)COCCOCCNC(=O)C[C@@H](NC(=O)C1CCN(C(=O)CCCCCCCCCCCCCCCCC(=O)O)CC1)C(=O)O)NC(=O)[C@H](Cc1ccc(O)cc1)NC(=O)[C@H](CO)NC(=O)[C@H](CO)NC(=O)[C@@H](NC(=O)[C@H](CC(=O)O)NC(=O)[C@H](CO)NC(=O)[C@@H](NC(=O)[C@H](Cc1ccc2ccccc2c1)NC(=O)[C@@H](NC(=O)CNC(=O)[C@H](CCC(=O)O)NC(=O)C(C)(C)NC(=O)[C@@H](N)Cc1c[nH]cn1)[C@@H](C)O)[C@@H](C)O)C(C)C)C(=O)N[C@@H](CCC(=O)O)C(=O)N[C@@H](Cc1c[nH]c2ccccc12)C(=O)N[C@@H](CC(C)C)C(=O)N[C@H](C(=O)N[C@@H](CCCCN)C(=O)NCC(=O)N[C@@H](CCCNC(=N)N)C(=O)NCC(N)=O)C(C)C` [Example 13, N-ε^20({2-[2-(2-{2-[2-((R)-3-carboxy-3-{[1-(17-carboxyheptadecanoyl)piperidine-4-carbonyl]amino}propionylamino)ethoxy]ethoxy}acetylamino)ethoxy]ethoxy}acetyl) [Aib^8,Lys^20,Arg^26,2-Naphtylalanine^12, Glu^30]GLP-1-(7-37)amide] (H-H[Aib]EGT[2Nal]TSDVSSYK([AEEA-AEEA-d(βAsp)-Inp-C18 diacid])EGQAAREFIEWLVKGRG-NH2; N-terminus assumed): 150 to 300 nM.
